Test results published in ChEMBL document CHEMBL4270509, “Targeting Wnt-driven cancers: Discovery of novel tankyrase inhibitors” (Eur J Med Chem, 2017).
Values belong to the compound of their own block, whether it stands above or below them.

Key:
[1] = Inhibition of Wnt/beta-catenin pathway (unknown origin) expressed in HEK293 cells by Wnt-responsive super-topflash luciferase reporter assay; type: cell-based; conditions: Homo sapiens
[2] = target: T1, Poly [ADP-ribose] polymerase tankyrase-1 (Homo sapiens) (UniProt O95271); test: Inhibition of TNKS1 (unknown origin) at 0.5 uM by colorimetric method
T1 sequence (whole entry): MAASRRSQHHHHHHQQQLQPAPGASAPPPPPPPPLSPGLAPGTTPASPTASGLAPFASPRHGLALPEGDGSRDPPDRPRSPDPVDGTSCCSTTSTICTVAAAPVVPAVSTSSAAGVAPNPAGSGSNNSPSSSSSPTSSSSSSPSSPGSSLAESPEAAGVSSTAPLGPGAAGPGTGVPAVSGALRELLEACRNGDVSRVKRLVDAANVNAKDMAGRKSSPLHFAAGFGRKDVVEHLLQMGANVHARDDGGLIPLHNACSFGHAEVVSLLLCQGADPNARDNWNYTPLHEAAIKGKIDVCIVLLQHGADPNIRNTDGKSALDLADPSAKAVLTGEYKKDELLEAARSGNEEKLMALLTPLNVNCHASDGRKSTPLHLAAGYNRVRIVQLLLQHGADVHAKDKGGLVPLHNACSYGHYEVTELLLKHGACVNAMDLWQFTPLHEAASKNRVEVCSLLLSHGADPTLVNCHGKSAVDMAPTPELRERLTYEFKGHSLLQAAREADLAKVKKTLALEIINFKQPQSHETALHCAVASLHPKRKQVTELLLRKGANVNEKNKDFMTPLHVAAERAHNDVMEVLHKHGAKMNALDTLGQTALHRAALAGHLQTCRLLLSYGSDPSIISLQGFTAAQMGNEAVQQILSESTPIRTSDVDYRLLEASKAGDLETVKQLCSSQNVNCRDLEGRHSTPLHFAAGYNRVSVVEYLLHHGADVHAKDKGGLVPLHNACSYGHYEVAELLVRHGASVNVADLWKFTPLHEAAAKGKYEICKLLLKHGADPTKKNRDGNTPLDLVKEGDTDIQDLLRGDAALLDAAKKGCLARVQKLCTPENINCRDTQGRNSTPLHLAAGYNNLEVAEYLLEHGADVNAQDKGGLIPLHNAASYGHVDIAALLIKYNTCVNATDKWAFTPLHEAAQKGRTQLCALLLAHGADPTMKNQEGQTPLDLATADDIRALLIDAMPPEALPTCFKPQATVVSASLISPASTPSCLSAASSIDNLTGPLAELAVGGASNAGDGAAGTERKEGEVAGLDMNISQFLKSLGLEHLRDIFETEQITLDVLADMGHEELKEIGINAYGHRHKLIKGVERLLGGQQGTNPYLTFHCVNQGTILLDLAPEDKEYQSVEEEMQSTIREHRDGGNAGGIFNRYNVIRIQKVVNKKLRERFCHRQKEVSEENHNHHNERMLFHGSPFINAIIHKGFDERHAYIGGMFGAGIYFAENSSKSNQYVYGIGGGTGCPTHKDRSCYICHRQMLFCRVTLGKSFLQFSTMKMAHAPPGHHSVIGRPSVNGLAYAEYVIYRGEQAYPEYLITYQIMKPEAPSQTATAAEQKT

MCF7 = test: Growth inhibition of human MCF7 cells incubated for 24 hrs by MTT assay; type: functional, cell-based; conditions: MCF7, 24 h
[3] = target: T2, Poly [ADP-ribose] polymerase tankyrase-1 (Homo sapiens, UniProt O95271)
T2 sequence (O95271 whole entry): T1 sequence (whole entry)
Description: Inhibition of human TNKS1 (1030 to 1317 residues) by fluorescence based activity assay

SW480 = test: Antitumor activity against human SW480 cells xenografted in CB17/SCID mouse assessed as inhibition of tumor growth at 150 to 300 mg/kg after 3 weeks; type: functional
[4] = target: T2, Poly [ADP-ribose] polymerase tankyrase-1; test: Inhibition of TNKS1 (unknown origin)

EC50 [1]: 0.18 to 2 µM
SMILES: N#Cc1ccccc1Cn1c(=O)n(CC2CCC(C(=O)NCc3ccccc3)CC2)c(=O)c2ccccc21 (centres undefined)

inhibition [2]: 60% | IC50 (MCF7): 5 µM
SMILES: Cc1c(Cl)cccc1NC(CC(=O)c1ccccc1)C(=O)OCC(=O)c1ccc([N+](=O)[O-])cc1 (centres undefined)

IC50 [3]: 0.005 µM
SMILES: CC(C)(C)c1ccc(-c2nc3ccccc3c(=O)[nH]2)cc1

EC50 [1]: 0.18 to 2 µM
SMILES: O=C(NC1CCCC1)c1ccc(Cn2c(=O)c3ccccc3n(Cc3cc(=O)n4ccccc4n3)c2=O)cc1

SMILES: COc1ccc(-n2c(SCc3nc(-c4ccc(C)cc4)no3)nnc2-c2ccncc2)cc1
TGI (SW480): 30%

EC50 [1]: 0.18 to 2 µM
SMILES: Cc1cccc2nc(Cn3c(=O)n(CC4CCC(C(=O)NCc5ccccc5)CC4)c(=O)c4ccccc43)cc(=O)n12 (centres undefined)

IC50 [4]: 11 µM
SMILES: Cn1c(-c2ccc(Cl)cc2Cl)nc(=O)c2cccnc21

EC50 [1]: 0.18 to 2 µM
SMILES: O=C(Nc1cccc2cccnc12)c1ccc(C2C(=O)[C@@H]3[C@H](C2=O)[C@@H]2C=C[C@H]3C2)cc1 (some centres undefined)
